Experimental data taken from patent US20140045807A2, “THE USE OF 3-METHOXY-PREGNENOLONE FOR THE PREPARATION OF A DRUG FOR TREATING A TRAUMATIC BRAIN INJURY” (priority 2004, published 2014).

Columns and labels:
[1] = molecular target: purified tubulin and MAP2 (Homo sapiens, UniProt P11137); test: MAP2-induced polymerization of microtubules in vitro (optical density at 345 nm); assay type: biochemical; conditions: for Activity (increase in optical density at 345 nm): purified tubulin and MAP2, 37° C., GTP; for effect on microtubule polymerization: MAP2 and tubulin with GTP, 37° C.
Chain of purified tubulin and MAP2 (P11137 whole entry): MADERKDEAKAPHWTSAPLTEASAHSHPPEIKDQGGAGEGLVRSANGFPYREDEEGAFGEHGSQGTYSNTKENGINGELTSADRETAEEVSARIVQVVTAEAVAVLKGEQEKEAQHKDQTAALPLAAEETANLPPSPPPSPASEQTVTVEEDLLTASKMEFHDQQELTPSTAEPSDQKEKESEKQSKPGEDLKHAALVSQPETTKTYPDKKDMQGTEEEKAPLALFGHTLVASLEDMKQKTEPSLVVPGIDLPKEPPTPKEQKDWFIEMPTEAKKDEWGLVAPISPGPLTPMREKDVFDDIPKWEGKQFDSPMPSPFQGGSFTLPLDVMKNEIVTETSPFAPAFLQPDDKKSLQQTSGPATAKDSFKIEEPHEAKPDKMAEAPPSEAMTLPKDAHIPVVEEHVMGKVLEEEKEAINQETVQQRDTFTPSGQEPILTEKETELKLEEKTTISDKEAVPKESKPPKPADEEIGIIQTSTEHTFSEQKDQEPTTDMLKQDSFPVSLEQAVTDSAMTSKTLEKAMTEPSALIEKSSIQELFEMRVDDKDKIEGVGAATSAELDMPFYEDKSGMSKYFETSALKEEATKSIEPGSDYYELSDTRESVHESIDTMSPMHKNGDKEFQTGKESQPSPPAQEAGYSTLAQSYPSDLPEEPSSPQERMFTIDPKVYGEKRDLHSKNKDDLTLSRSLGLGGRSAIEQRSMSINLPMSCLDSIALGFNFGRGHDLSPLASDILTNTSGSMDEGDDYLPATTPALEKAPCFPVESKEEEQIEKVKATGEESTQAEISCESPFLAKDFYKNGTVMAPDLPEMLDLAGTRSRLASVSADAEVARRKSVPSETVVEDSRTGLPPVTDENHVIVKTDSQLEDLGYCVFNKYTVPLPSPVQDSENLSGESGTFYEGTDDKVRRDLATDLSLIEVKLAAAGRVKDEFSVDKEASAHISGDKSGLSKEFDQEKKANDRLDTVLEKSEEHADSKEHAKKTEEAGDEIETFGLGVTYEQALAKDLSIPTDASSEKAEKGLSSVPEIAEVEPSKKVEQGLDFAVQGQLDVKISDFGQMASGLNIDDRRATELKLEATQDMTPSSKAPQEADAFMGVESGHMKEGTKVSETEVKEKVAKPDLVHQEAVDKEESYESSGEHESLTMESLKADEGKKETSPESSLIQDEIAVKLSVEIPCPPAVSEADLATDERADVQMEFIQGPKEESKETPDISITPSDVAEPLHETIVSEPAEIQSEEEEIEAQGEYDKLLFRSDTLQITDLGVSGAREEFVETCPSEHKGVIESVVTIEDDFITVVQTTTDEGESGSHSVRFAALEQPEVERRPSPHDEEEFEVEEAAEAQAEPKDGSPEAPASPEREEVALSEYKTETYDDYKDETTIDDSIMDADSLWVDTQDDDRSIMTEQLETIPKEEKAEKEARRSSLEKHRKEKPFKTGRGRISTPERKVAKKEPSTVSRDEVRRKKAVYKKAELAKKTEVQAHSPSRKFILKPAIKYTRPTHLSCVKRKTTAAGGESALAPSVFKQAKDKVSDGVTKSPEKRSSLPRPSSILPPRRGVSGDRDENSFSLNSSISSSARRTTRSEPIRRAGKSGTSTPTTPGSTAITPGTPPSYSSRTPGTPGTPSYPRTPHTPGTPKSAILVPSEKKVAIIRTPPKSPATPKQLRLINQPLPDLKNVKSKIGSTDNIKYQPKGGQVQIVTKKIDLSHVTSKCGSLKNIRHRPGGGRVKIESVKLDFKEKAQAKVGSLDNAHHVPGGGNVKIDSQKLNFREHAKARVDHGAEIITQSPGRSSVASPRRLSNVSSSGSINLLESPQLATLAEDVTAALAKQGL
Method: Purified MAP2 and tubulin are mixed in the presence of GTP at 4° C. in a spectrophotometer cuvette. Polymerization is induced by heating at 37° C. and is followed by the increase in optical density (OD) which indicates the quantity of polymers formed.
This in vitro test measures the effect of molecules on the MAP2-induced polymerization of microtubules. This polymerization occurs when MAP2 proteins and tubulin are mixed at adequate concentrations in the presence of GTP. It is accompanied by an increase in optical density measured at 345 nm for 15 to 30 minutes with a UNICON spectrophotometer thermostated at 37° C. (FIG. 1).
Activity is measured by the increase in optical density at 345 nm of a mixture of purified tubulin and MAP2, incubated at 37° C. in the presence of GTP.

MAP2 = MAP2 (Homo sapiens, UniProt P11137); test: Binding (affinity) by displacement of PREG-^3H
Chain of MAP2 (P11137 whole entry): as above
Method: Binding (affinity) is measured by the displacement of PREG-^3H.

PC12 cells [2] = test: Neuritic growth / sprouting in PC12 cells with NGF; assay type: cell-based, rat; conditions: 30 μM, after 3 days of culture, with NGF
Method: Each molecule was tested in three culture wells. Measurements were taken for 200 cells per well using Scion Image software.
Neurite (neurite) length was measured for 200 cells per well after 2, 5, and 8 days of culture.
Stimulation of neuritic sprouting is conducted on PC12 cells differentiated in the presence of NGF (10 ng/ml) and the steroid being tested (30 μM) for 3 days. For each condition, the average length of the longest 200 neurites in each cell is measured simultaneously for 3 cultures.

PC12 cells [3] = test: Retraction of neurites induced by nocodazole; assay type: cell-based, rat; conditions: pretreated one hour at 30 μM, nocodazole 15 minutes
Text: FIG. 5: Retraction of neurites (neurites) induced by nocodazole.
Nocodazole is a microtubule depolymerizing agent. Its addition to PC12 cell cultures, differentiated in the presence of NGF, causes neurites to retract as a result of the depolymerization of their microtubules.

[4] = test system: human neuroblastoma HS-SY5Y cells; test: Cytotoxicity of okadaic acid, steroid protection (LDH release); assay type: cell-based; conditions: 24 hours, simultaneous addition, increasing concentrations
Text: FIG. 6: Toxicity of okadaic acid. Steroid protection. […] Cell death was indicated by the release of lactate dehydrogenase (LDH) in the culture medium.
Okadaic acid is a protein phosphatase inhibiter. Thus, the hyperphosphorylation of tau protein is implicated in microtubule depolymerization and in human neuroblastoma HS-SY5Y cell death. The exposure of SY5Y cell cultures to okadaic acid does in fact cause significant cell death.

PC12 cell line = test: Cellular toxicity test; assay type: cell-based, rat; conditions: concentrations as high as solubility limits (approximately 50 μM)
Method: Cellular toxicity tests are carried out routinely on the PC12 cell line.

[5] = test system: transgenic mice expressing the longest human tau protein isoform; test: RotaRod test in transgenic mice expressing the longest human tau protein isoform; assay type: in vivo, mouse; conditions: subcutaneous implant releasing 0.38 mg of steroid per day for 90 days
Text: FIG. 8: Effect of molecule 43B on the motor incoordination of transgenic mice expressing the longest isoform of human tau protein in their neurons. […] The maximum speed of rotation of the RotaRod drum before the […] falls is a measurement of motor coordination (higher values correspond to a better treatment effect).
In order to evaluate the therapeutic potential of 43B to treat Alzheimer-type neurodegenerative diseases, a homozygous transgenic line of mice, such as described by Götz (EMBO J. 1995; 14(7):1304-13), can be used.
These mice express the longest human tau protein isoform. They present symptoms of neurological dysfunction expressed as muscular weakness and a reduction in motor coordination which correlate histologically with the appearance of abnormal neurites and hyperphosphorylated tau proteins as is seen in Alzheimer's disease. This pathological phosphorylation decreases the affinity of tau for microtubules and favors its aggregation.
A breeding program was undertaken at Bicêtre and genotyping made it possible to select mice homozygous for the transgene. […] These implants released 0.38 mg of steroid per day for 90 days. The progression of motor incoordination was followed by repeated RotaRod tests.

[6] = test system: α-tubulin forms (Tyr/Glu-Tub, Acet-Tub) in rat hippocampus; test: Microtubule dynamics in rat hippocampus after single administration; assay type: in vivo; conditions: 10 mg/kg subcutaneously, 3 h following injection
Text: Mean±SEM, n=6 per group. **p<0.01, *[…] vs sesame oil.
The effects produced by neurosteroids were compared with those produced by acute administration of the antidepressant drug fluoxetine (selective serotonin reuptake inhibitor; SSRI).

[7] = test system: Sprague Dawley rats in the FST; test: Forced swimming test (FST); assay type: in vivo, rat; conditions: 10 mg/kg subcutaneously, 24, 5, 1 h before testing
Text: (A) 3-methoxy-PREG (43B) decreased rat immobility in the FST showing antidepressant activity. Results are expressed as mean±SEM (n=6-14). One-way ANOVA: Treatment (F5, 46: 4.30 P<0.01). ***P<0.001, *P<0.05 vs. water and sesame oil (Fisher LSD test). […] Results are expressed as mean±SEM (n=6-14). One-way ANOVA: Treatment (F5, 46: 3.57 P<0.01). **P<0.01, *P<0.05 vs. water and sesame oil (Fisher LSD test). […] One-way ANOVA: Treatment (F5, 46: 3.57 P<0.01). **P<0.01, *P<0.05 vs. water and sesame oil (Fisher LSD test).
Drugs were administered following the traditional dosing regimen used in the FST consisting of three injections: 24, 5, 1 h before testing.
The FST is currently the most widely used animal model for assessing depression related behavior and antidepressant drug activity in rodents (Cryan et al., Neubiorev. 2005). Rats are placed in an inescapable cylinder of water where they develop an immobile posture believed to reflect a “depressive”-like state. The time rats spend immobile is decreased by drugs exerting antidepressant activity.
Additional behaviors can be detected in the FST; namely, climbing and swimming. It has been shown that swimming behavior is sensitive to SSRIs such as fluoxetine whereas climbing is sensitive to norepinephrine re-uptake inhibitors (NRI) such as desipramine.

[8] = molecular target: T1, human progesterone receptor(PR) (Homo sapiens, UniProt P06401); test: Test of progesterone receptor agonist activity (luciferase transactivation, HEK293T); assay type: cell-based; conditions: increasing amounts, 24 hours
T1 construct: expressed in transfected cells; host or cells: HEK293T
T1 sequence (P06401 1-933): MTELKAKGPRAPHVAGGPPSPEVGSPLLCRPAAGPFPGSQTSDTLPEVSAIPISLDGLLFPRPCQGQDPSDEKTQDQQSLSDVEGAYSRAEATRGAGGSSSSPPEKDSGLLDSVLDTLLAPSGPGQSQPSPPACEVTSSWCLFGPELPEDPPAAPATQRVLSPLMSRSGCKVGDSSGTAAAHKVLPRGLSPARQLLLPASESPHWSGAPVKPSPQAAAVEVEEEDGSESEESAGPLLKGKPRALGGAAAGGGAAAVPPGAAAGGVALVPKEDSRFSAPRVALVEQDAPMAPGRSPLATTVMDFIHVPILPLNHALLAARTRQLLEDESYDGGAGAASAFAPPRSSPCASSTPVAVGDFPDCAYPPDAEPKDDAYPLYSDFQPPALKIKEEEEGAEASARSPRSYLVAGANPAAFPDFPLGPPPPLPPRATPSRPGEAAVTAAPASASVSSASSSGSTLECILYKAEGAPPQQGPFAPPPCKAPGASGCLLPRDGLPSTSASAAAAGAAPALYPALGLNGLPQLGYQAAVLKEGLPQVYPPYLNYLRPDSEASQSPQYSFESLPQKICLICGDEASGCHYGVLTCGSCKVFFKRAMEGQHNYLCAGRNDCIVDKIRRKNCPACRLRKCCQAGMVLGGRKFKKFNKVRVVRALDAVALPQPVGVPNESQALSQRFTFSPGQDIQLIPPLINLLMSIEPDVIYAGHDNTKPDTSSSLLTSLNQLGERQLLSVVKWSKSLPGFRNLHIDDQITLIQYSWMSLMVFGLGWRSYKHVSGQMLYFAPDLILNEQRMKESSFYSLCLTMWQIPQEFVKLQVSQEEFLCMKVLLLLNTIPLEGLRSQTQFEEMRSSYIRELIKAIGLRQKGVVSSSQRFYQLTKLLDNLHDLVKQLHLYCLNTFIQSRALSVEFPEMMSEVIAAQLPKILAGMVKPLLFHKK
Method: The main experimental setting used is the following: HEK293T cells were transiently transfected, using calcium phosphate precipitation technology, with expression vectors pSG5hPR (which permits expression of human progesterone receptor(PR)), pFC31-luc (contains the luciferase gene under the control of the MMTV promoter, which is in turn activated by binding of a progestin to progesterone receptor) and pcbetagal (which permits expression of betagalactosidase), and cultured during 24 hours with increasing amounts of various compositions: • 1. […] Test of progesterone receptor […] activity: transfected cells were cultured with progesterone (1 nM) and increasing amounts of RU486 (a well-known progesterone receptor antagonist) or 3-methoxy-pregnenolone. • With this setting, a compound with progesterone receptor antagonist activity competes with progesterone for the occupation of progesterone receptor and results in a progressive loss of transactivation activity when the amount of this compound is increased compared to progesterone.

[9] = 40 μM, compared to control kinetics with solvent alone

Molecule	Activity (increase in optical density at 345 nm) [1]	Affinity (index of binding) (MAP2)	further results
CC(=O)[C@H]1[C@H](C)C[C@H]2[C@@H]3CC[C@H]4C[C@@H](O)CC[C@]4(C)[C@H]3CC[C@@]21C [3β-hydroxy-5α-pregnane-20-one-16α-methyl]	53% of PREG	57% of PREG	
CO[C@H]1CC[C@@]2(C)[C@@H](CC[C@@H]3[C@@H]2CC[C@]2(C)[C@@H](C(C)=O)CC[C@@H]32)C1 [3β-methoxy-5α-pregnane-20-one]	10% of PREG	87% of PREG	
CO[C@H]1CC[C@@]2(C)C(CCC3C2CC[C@@]2(C)C3CC[C@@H]2[C@@H](C)O)C1 (stereo partly drawn) [3β-methoxy-5α-pregnane-20β-ol]	65% of PREG	65% of PREG	
CO[C@H]1CC[C@@]2(C)C(=CC[C@H]3C4=CC[C@H](C(C)=O)[C@@]4(C)CC[C@@H]32)C1 [3β-methoxy-pregna-5,14-diene-20-one]	50% of PREG	102% of PREG	
CO[C@H]1CC[C@@]2(C)C(=CC[C@@H]3[C@@H]2CC[C@@]2(C)[C@H]3CC[C@@]2(C(C)=O)C(Cl)Cl)C1 [3β-methoxy-pregna-5-ene-20-one-17α-dichloromethyl]	113% of PREG	53% of PREG	
CC(=O)[C@H]1CC[C@H]2[C@@H]3CC=C4C[C@@H](O)CC[C@]4(C)[C@H]3CC[C@]12C [PREG, Pregnenolone]	100% of PREG		Lag time of microtubule polymerization [1, 9]: decreased; polymerization rate and quantity of microtubules [1, 9]: clearly increase; effect on microtubule polymerization [1]: activates microtubule polymerization; increase in the average length of the neurites (PC12 cells [2]): 60%; resistance of neurites to nocodazole (PC12 cells [3]): makes the neurites resistant to nocodazole; cell death caused by okadaic acid (LDH release) [4]: Cell death is decreased; cellular toxicity (PC12 cell line): do not demonstrate toxicity; motor dysfunction (RotaRod) [5]: Only the 3-methoxy-PREG had a beneficial effect; Acet-Tub (marker of stable microtubules) [6]: significantly decreased; rat climbing behavior in the FST [7]: not changed; rat swimming in the FST [7]: significantly increased
CC(=O)[C@@]12C[C@@H]1C[C@H]1[C@@H]3CC=C4C[C@@H](O)CC[C@]4(C)[C@H]3CC[C@@]12C [PREG-16α,17α-methylene]	49% of PREG	62% of PREG	
CC(=O)[C@H]1[C@H](C)C[C@H]2[C@@H]3CC=C4C[C@@H](O)CC[C@]4(C)[C@H]3CC[C@@]21C [PREG-16α-methyl]	70% of PREG	80% of PREG	
CC(=O)[C@H]1[C@@H](C)C[C@H]2[C@@H]3CC=C4C[C@@H](O)CC[C@]4(C)[C@H]3CC[C@@]21C [PREG-16β-methyl]	67% of PREG	63% of PREG	
CC(=O)O[C@H](C)[C@H]1CC[C@H]2[C@@H]3CC=C4C[C@@H](O)CC[C@]4(C)[C@H]3CC[C@]12C [Pregna-5-ene-3β,20β-diol-20-acetate]	108% of PREG	60% of PREG	
CNCCC(Oc1ccc(C(F)(F)F)cc1)c1ccccc1 (stereo not shown) [fluoxetine]			Acet-Tub (marker of stable microtubules) [6]: tendency to increase; Tyr/Glu-Tub ratio (index of microtubule dynamics) [6]: did not change
CC(=O)[C@H]1CC[C@H]2[C@@H]3CCC4=CC(=O)CC[C@]4(C)[C@H]3CC[C@]12C [progesterone, reference compound]			effect on microtubule polymerization [1]: do not stimulate polymerization; progesterone receptor agonist (transactivation) activity [8]: permits a transactivation activity
PREG-16α,17α-epoxy	54% of PREG	41% of PREG	
pregnenolone sulfate [reference compound]			effect on microtubule polymerization [1]: do not stimulate polymerization
